What all share (experiment): inside-out patch clamp, Cl- current stimulation
The target of test [1] is T1, ANO1 (TMEM16A; mTMEM16A) (Mus musculus, UniProt Q8BHY3).
T1 sequence (Q8BHY3 1-960): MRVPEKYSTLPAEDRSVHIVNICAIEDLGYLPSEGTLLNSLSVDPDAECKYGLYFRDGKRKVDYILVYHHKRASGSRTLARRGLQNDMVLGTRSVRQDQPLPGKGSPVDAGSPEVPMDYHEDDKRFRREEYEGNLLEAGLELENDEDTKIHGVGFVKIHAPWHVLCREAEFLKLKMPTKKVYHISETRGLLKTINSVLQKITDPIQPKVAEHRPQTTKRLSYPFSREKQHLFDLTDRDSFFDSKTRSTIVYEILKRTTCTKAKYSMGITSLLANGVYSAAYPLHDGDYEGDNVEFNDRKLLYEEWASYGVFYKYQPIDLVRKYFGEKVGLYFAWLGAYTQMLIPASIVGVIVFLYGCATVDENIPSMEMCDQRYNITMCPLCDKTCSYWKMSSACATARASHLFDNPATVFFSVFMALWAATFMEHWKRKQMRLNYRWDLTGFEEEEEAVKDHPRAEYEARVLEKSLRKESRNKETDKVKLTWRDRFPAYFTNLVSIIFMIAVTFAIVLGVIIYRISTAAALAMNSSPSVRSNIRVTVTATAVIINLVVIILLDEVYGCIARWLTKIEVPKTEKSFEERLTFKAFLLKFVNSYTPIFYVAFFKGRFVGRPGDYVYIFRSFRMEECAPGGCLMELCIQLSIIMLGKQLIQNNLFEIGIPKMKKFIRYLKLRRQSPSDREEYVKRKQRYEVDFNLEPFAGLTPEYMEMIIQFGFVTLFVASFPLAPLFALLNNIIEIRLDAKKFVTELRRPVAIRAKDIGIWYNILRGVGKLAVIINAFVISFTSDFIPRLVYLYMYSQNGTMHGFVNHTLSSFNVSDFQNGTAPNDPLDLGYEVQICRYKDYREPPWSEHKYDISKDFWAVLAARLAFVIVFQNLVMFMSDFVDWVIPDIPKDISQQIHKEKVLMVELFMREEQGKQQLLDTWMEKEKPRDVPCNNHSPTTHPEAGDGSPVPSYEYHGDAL
Type of test: cell-based.

Test [2] concerns the target T1, ANO1 (TMEM16A; mTMEM16A). The class given is biochemical. The following applies: +100 mV, 270 nM Ca2+; wild-type reference of the mutant set.
Test [3] deals with T1, ANO1 (TMEM16A; mTMEM16A). The class given is biochemical. Particulars: +100 mV, 270 nM Ca2+.

As for `CCCCCCCC(=O)OC[C@H](COP(=O)(O)O[C@@H]1[C@H](O)[C@H](O)[C@@H](OP(=O)(O)O)[C@H](OP(=O)(O)O)[C@H]1O)OC(=O)CCCCCCC` [diC8-PI(4,5)P2], it took 1.24 µM to reach a half-maximal effect in test [1] (EC50). In addition, the “ΔIPIP2 (% current increase) at 10 μM” value in test [2] was found to be 89.9 ± 16.8%.

Turning to `CCCCCCCC(=O)OC[C@H](COP(=O)(O)O[C@H]1[C@H](O)[C@@H](OP(=O)(O)O)[C@H](OP(=O)(O)O)[C@@H](OP(=O)(O)O)[C@H]1O)OC(=O)CCCCCCC` [diC8-PI(3,4,5)P3], the “% current increase at 10 μM” value in test [3] stood at 31 ± 12%.

These data come from article doi:10.1101/625897v2 (biorxiv, 2019).
